Measurements taken from patent US20220313587A1, “Oral Care Compositions” (Colgate-Palmolive Company, priority 2019, published 2022).

Tests used:
[1] = tested on: gingival epithelial cells (GEC); assay: Topical application of vitamin D to gingival epithelial cells, LL-37 expression; format: cell-based
CAP-18 (LL-37) = assay: Relative gene expression by qPCR (LL-37 probe) in oral tissue model after treatment with toothpaste slurry; format: cell-based, human; conditions: fresh toothpaste slurry 1:3 in water, 2 minutes treatment, overnight incubation, normalized with GAPDH
Description: (§1) A toothpaste slurry was prepared by diluting the toothpaste formulation of Table 1 with deionized water in a 1:3 ratio. The slurry was applied on top of tissues that modeled the human oral cavity. After 2 minutes of the treatment, the tissues were rinsed with PBS twice or three times. Medium in wells was replaced with fresh medium and incubated in a cell culture incubator for overnight. Tissues were harvested and processed for RNA isolation and c-DNA preparation. Two probes were used for qPCR; CAP-18 (LL-37) and Cyp24A1. Relative levels of expressions were assessed after normalization with GAPDH (internal control).
(§2) The data is consistent for both LL-37 and Cyp24A1.

Cyp24A1 = assay: Relative gene expression by qPCR (Cyp24A1 probe) in oral tissue model after treatment with toothpaste slurry; format: cell-based, human; conditions: fresh toothpaste slurry 1:3 in water, 2 minutes treatment, overnight incubation, normalized with GAPDH
Description: as §1, §2

| Compound | expression of anti-microbial peptide (LL-37) proteins [1] | Relative Gene Expression after Treatment, LL-37, Mean (CAP-18 (LL-37)) | Relative Gene Expression after Treatment, Cyp24A1, Mean (Cyp24A1) |
| --- | --- | --- | --- |
| C=C1/C(=C\C=C2/CCC[C@]3(C)[C@@H]([C@H](C)CCCC(C)(C)O)CC[C@@H]23)C[C@@H](O)C[C@@H]1O [1,25(OH)2D3, 1,25-dihydroxycholecalciferol] | induces enhanced expression | – | – |
| C=C1CC[C@H](O)C/C1=C/C=C1\CCC[C@]2(C)[C@@H]([C@H](C)CCCC(C)C)CC[C@@H]12 [Neat Active, cholecalciferol] | – | 2.0 | 4.3 |
